Assay results reported in patent US20220174947A1, “ANTIMICROBIAL MIXTURE CONTAINING 4-(3-ETHOXY-4-HYDROXYPHENYL)BUTAN-2-ONE AND AN ALCOHOL COMPOUND, AND COSMETIC COMPOSITION CONTAINING SAME” (L'OREAL, priority 2018, published 2022).

What was measured:
Test in all cases: Synergistic antimicrobial activity as MIC, 96-well microplate, optical density at 620 nm
Type in all cases: cell-based
[1] = tested on: Candida albicans ATCC 10231; settings: for microbial growth percentage: 0 B5 weight %
Text: with: • MIC of A with B: minimum concentration of product A in the combination A+B which makes it possible to obtain an inhibitory effect; • MIC of B with A: minimum concentration of product B in the combination A+B which makes it possible to obtain an inhibitory effect; • MIC of A: minimum inhibitory concentration of product A alone; • MIC of B: minimum inhibitory concentration of product B alone. This formula was described for the first time in the article by F. C. Kull, […], and R. L. Mayer, Applied Microbiology 9:538-541, 1961. […] When the FIC index value is less than or equal to 1, it is considered that the combination of test compounds has a synergistic effect. […] A 96-well microplate at an incubation temperature of 32.5° C. is used. […] For each compound: […] 50 μl of each of the daughter solutions obtained containing compound A and 50 μl of each of the daughter solutions obtained containing compound B are added to the microplate wells. 100 μl of Sabouraud liquid nutrient broth inoculated at double concentration with the strain Aspergillus niger are also added thereto. A positive microbial growth control was also prepared. […] An absorbance control was performed in parallel on compounds A and B alone. This control corresponds to 100 μl of double concentration sterile Sabouraud liquid nutrient broth+100 μl of double concentration compound A or B. […] The test as described above (tests, absorbance control and growth control) was performed again to test the combination A+B on the following strains Enterococcus faecalis, Staphylococcus aureus, Pseudomonas aeruginosa, Candida albicans, where appropriate.

[2] = tested on: Staphylococcus aureus ATCC 6538; settings: for % MIC of A alone: Staphylococcus aureus, growth <= 25%
Text: (§1) FIC Index=(MIC of A with B/MIC of A)+(MIC of B with A/MIC of B [Math. 1]
(§2) with: • MIC of A with B: minimum concentration of product A in the combination A+B which makes it possible to obtain an inhibitory effect; • MIC of B with A: minimum concentration of product B in the combination A+B which makes it possible to obtain an inhibitory effect; • MIC of A: minimum inhibitory concentration of product A alone; • MIC of B: minimum inhibitory concentration of product B alone. This formula was described for the first time in the article by F. C. Kull, P. C. Eisman, H. D. Sylwestrowka, and R. L. Mayer, Applied Microbiology 9:538-541, 1961.
The microbial strain Staphylococcus aureus ATCC 6538 and a double-concentration nutrient broth liquid culture medium were used.
(§3) A 96-well microplate at an incubation temperature of 32.5° C. is used.
(§4) The incubation time of the microplate is: • from 24 to 30 h under aerobic conditions for microbial Aspergillus niger ATCC 6275; • from 18 to 24 h under aerobic conditions for Candida albicans ATCC 10231, Pseudomonas aeruginosa ATCC 9027 and Staphylococcus aureus ATCC 6538; • from 24 to 48 h under aerobic conditions for Enterococcus faecalis ATCC 33186.
(§5) For each compound: A=4-(3-ethoxy-4-hydroxyphenyl) butan-2-one compound B=alcohol compound A 10% (weight/volume) stock solution was prepared by mixing 1 g of compound in 9 ml of aqueous 1% agar solution. Successive dilutions were made with the 1% agar solution.
(§6) 50 μl of each of the daughter solutions obtained containing compound A or B are added to the microplate wells. 100 μl of Sabouraud liquid nutrient broth inoculated at double concentration with the Aspergillus niger strain and 50 μl of aqueous 1% agar solution are also added thereto.
(§7) 50 μl of each of the daughter solutions obtained containing compound A and 50 μl of each of the daughter solutions obtained containing compound B are added to the microplate wells. 100 μl of Sabouraud liquid nutrient broth inoculated at double concentration with the strain Aspergillus niger are also added thereto.
(§8) A positive microbial growth control was also prepared. The positive microbial growth control corresponds to a mixture of 100 μl of aqueous 1% agar solution with 100 μl of Sabouraud liquid nutrient broth inoculated at double concentration with the strain Aspergillus niger in the absence of compounds A and B.
(§9) An absorbance control was performed in parallel on compounds A and B alone. This control corresponds to 100 μl of double concentration sterile Sabouraud liquid nutrient broth+100 μl of double concentration compound A or B.
(§10) In the three cases (absorbance control, growth control and test), the final volume present in each of the microplate wells is 200 μl.
(§11) The test as described above (tests, absorbance control and growth control) was performed again to test the combination A+B on the following strains Enterococcus faecalis, Staphylococcus aureus, Pseudomonas aeruginosa, Candida albicans, where appropriate.

[3] = tested on: Enterococcus faecalis ATCC 33186; settings: for % MIC of A alone: Enterococcus faecalis, growth <= 25%
Text: as §1, §2
The microbial strain Enterococcus faecalis ATCC 33186 and a double-concentration BHI (Brain Heart Infusion) broth liquid culture medium were used.
as §3, §4, §5, §6, §7, §8, §9, §10, §11

% MIC of A alone ([1]; Candida albicans, Example 5, growth <= 25%): 0.2%
% MIC of A alone ([2]; Example 2): 1%
% MIC of A alone ([2]; Example 6): 1%
% MIC of A alone ([3]; Example 3): 0.5%
% MIC of A alone ([3]; Example 4): 0.5%
% MIC of A alone ([3]; Example 6): 0.5%
Compound: CCOc1cc(CCC(C)=O)ccc1O [A, 4-(3-ethoxy-4-hydroxyphenyl)butan-2-one]
microbial growth percentage ([1]; 0.025 A): 69%
microbial growth percentage ([1]; 0.05 A): 54%
microbial growth percentage ([1]; 0.1 A): 27%
microbial growth percentage ([1]; 0.2 A): 4%
microbial growth percentage ([2]; 0.0625 A, 0 B2 weight %): 52%
microbial growth percentage ([2]; 0.0625 A, 0 B6 weight %): 65%
microbial growth percentage ([2]; 0.125 A, 0 B2 weight %): 49%
microbial growth percentage ([2]; 0.125 A, 0 B6 weight %): 75%
microbial growth percentage ([2]; 0.25 A, 0 B2 weight %): 52%
microbial growth percentage ([2]; 0.25 A, 0 B6 weight %): 79%
microbial growth percentage ([2]; 0.5 A, 0 B2 weight %): 75%
microbial growth percentage ([2]; 0.5 A, 0 B6 weight %): 24%
microbial growth percentage ([2]; 1 A, 0 B2 weight %): 2%
microbial growth percentage ([2]; 1 A, 0 B6 weight %): 5%
microbial growth percentage ([3]; 0.0625 A, 0 B3 weight %): 70%
microbial growth percentage ([3]; 0.0625 A, 0 B4 weight %): 44%
microbial growth percentage ([3]; 0.0625 A, 0 B6 weight %): 35%
microbial growth percentage ([3]; 0.125 A, 0 B3 weight %): 31%
microbial growth percentage ([3]; 0.125 A, 0 B4 weight %): 39%
microbial growth percentage ([3]; 0.125 A, 0 B6 weight %): 43%
microbial growth percentage ([3]; 0.25 A, 0 B3 weight %): 27%
microbial growth percentage ([3]; 0.25 A, 0 B4 weight %): 38%
microbial growth percentage ([3]; 0.25 A, 0 B6 weight %): 34%
microbial growth percentage ([3]; 0.5 A, 0 B3 weight %): 14%
microbial growth percentage ([3]; 0.5 A, 0 B4 weight %): 12%
microbial growth percentage ([3]; 0.5 A, 0 B6 weight %): 0%
